Measurements reported in article PMC9266004, “Potential Common Mechanisms of Cytotoxicity Induced by Amide Herbicides via TRPA1 Channel Activation” (International Journal of Environmental Research and Public …, 2022).
Read-outs that look alike come from different tables or passages of the source.

Key:
A549 cells [1] = assay: CCK-8 cell viability assay in WT A549 cells; type: cell-based, human; settings: for viability of A549 cells compared with 0 μM AHs: 150, 300, 600, 1200 μM, 24 h; for viability of A549 cells compared with 0 μM AHs / IC50: CCK-8; for viability with HC-030031 pre-treatment compared with AHs treatment alone: A549 cells, HC-030031 50 μM, AHs 150, 300, 600 μM
Procedure: (§1) Wild-type (WT) and TRPA1-KO A549 cells were cultured in McCoy’s 5A Media and F-12K Nutrient Mixture containing 10% fetal bovine serum, respectively. WT/TRPA1-KO A549 cells (5 × 10^4 cells/mL) were seeded in 96-well (100 μL/well) and 6-well (2 mL/well) plates and incubated at 37 °C with 5% CO2 in a humidified incubator for 24 h. WT/TRPA1-KO A549 cells were treated with AHs gradient concentrations (0, 150, 300, 600, 1200 μM) prepared in methanol (1.2 M) for 24 h. […]
(§2) To conduct the cell viability assay, the growth medium was removed from WT/TRPA1-KO A549 cells cultured in a 96-well plate. CCK-8 reagent was mixed with complete medium (1:9 volume ratio), and 100 µL of the CCK-8 reagent mixture was added to each well. The plate was incubated for 4 h and the absorbance was measured at 450 nm using a microplate reader (BNR05740; Molecular Devices, Sunnyvale, CA, USA). The average absorbance from each sextuplicate set of wells was calculated and the background control value was subtracted from each absorbance value. The percentage cell viability was determined using the following equation:cell viability (%) = [(As − Ab)/(Ac − Ab)] × 100% where As is the absorbance of the experimental well (containing medium, CCK-8 reagent, cells, and compound); Ac is the absorbance of the control well (containing medium, CCK-8 reagent, and cells); and Ab is the absorbance of the blank well (containing medium and CCK-8 reagent).

TRPA1-KO A549 cells = assay: CCK-8 cell viability assay in TRPA1-KO A549 cells; type: cell-based, human; settings: for IC50: Homo sapiens, TRPA1-KO A549 cells, 24 h treatment, CCK-8, read-out: IC50 values of AHs, TRPA1-KO A549 Cells; for viability of TRPA1-KO A549 cells compared with AHs-treated WT cells: KO of TRPA1, AHs 150, 300, 600 μM
Procedure: (§3) The hTRPA1 gene sequence (Gene ID: 8989) was obtained from the National Center for Biotechnology Information (NCBI) website (https://www.ncbi.nlm.nih.gov/gene/8989 accessed on 26 May 2022). Three gRNA sequences, namely, T1: 5′-[…]-[…], T16: 5′-[…]-3′, and T20: 5′-[…]-3′, were designed using the CRISPR online design tool (http://crispr.mit.edu/ accessed on 26 May 2022). Transfection of cells with gRNA-Cas9 was validated in test cells. Cell pool examination was performed using Sanger sequencing. Sequencing and tracer analysis were performed using the online tool TIDE (https://tide-calculator.nki.nl/ accessed on 26 May 2022) to investigate the cleavage efficiency of T1, T16, and T20. Cells from the cell pool were diluted in 96-well plates. Clones were observed under a microscope and wells containing single cell clones were labeled. Single cell clones were transferred to 24-well plates for expansion. Validation of knockout (KO) clones was performed via sequencing to confirm insertion and deletion on the genomes of KO clone candidates. Furthermore, mycoplasmas were detected for cloned cells with high KO using the Mycoplasma PCR Detection Kit.
(§4) Wild-type (WT) and TRPA1-KO A549 cells were cultured in McCoy’s 5A Media and F-12K Nutrient Mixture containing 10% fetal bovine serum, respectively. WT/TRPA1-KO A549 cells (5 × 10^4 cells/mL) were seeded in 96-well (100 μL/well) and 6-well (2 mL/well) plates and incubated at 37 °C with 5% CO2 in a humidified incubator for 24 h. WT/TRPA1-KO A549 cells were treated with AHs gradient concentrations (0, 150, 300, 600, 1200 μM) prepared in methanol (1.2 M) for 24 h. Additionally, WT/TRPA1-KO A549 cells were pre-treated with TRPA1 special inhibitor HC-030031 (100 μM) for 0.5 h and then treated with AHs gradient concentrations for 24 h.
as §2

[2] = target: hTRPA1 ARD recombinant protein (Homo sapiens, UniProt O75762); assay: LSPR binding analysis (OpenSPR, COOH chip); settings: at the analyte concentrations tested (up to 1000-2000 μM)
Procedure: The binding capacity of hTRPA1 ARD recombinant protein and AHs was determined by LSPR according to the OpenSPR (Nicoya Life Sciences, Kitchener, ON, Canada) operating procedure using the COOH chip. After the baseline signal was obtained, the sample was washed with 200 µL 80% isopropyl alcohol for 10 s, and 200 µL ethylcarbodiimide/N-hydroxysuccinimide solution was added. The sample loop was rinsed with phosphate-buffered saline (PBS). hTRPA1 (5 µL) was diluted with PBS, incubated for 4 min, and 200 µL blocking solution was added. […] Contact and dissociation time of analytes and protein were 240 s and 160 s, respectively. TraceDrawer software was applied to determine the association constant (ka), dissociation constant (kd), and affinity constant (KD) using a 1:1 model.

A549 cells [3] = assay: LDH cytotoxicity assay; type: cell-based, human
Procedure: as §4
Using the Cytotoxicity LDH Assay Kit, lysis buffer (10 μL) was added to the high control well of a 96-well plate containing WT/TRPA1-KO A549 cells, which was then incubated for 0.5 h. Working solution was prepared by adding 5 mL assay buffer to the dye mixture vial, of which 100 μL was added to each well. The plate was protected from light and incubated at room temperature for 0.5 h. Subsequently, 50 μL stop solution was added to each well and the absorbance was measured immediately at 490 nm using a microplate reader (BNR05740, Molecular Devices). The average absorbance was calculated from each sextuplicate set of wells and the background control value was subtracted from each absorbance value. The percentage cytotoxicity was determined using the following equation:cytotoxicity (%) = [(Aa − Ab1)/(Ab2 − Ab1)] × 100% where Aa is the absorbance of the experimental well (containing medium, cells, and compound); Ab2 is the absorbance of the high control well (containing medium, cells, and lysis buffer); and Ab1 is the absorbance of the low control well (containing medium and cells).

TRPA1 mRNA in A549 cells = assay: RT-qPCR of TRPA1 mRNA; type: cell-based, human; settings: for TRPA1 mRNA expression with HC-030031 pre-treatment compared with AHs treatment alone: HC-030031 50 μM, AHs 150, 300, 600 μM; for expression of TRPA1 mRNA compared with 0 μM AHs: significant at one or more of 150, 300, 600 μM
Procedure: as §1
TRIzol Reagent (1 mL) was directly added to WT/TRPA1-KO A549 cells in 6-well plates and total RNA was extracted according to the manufacturer’s instructions. Total RNA was used for cDNA reverse transcription, which was performed according to the PrimeScript RT protocol with the following reaction conditions: 42 °C for 2 min, 4 °C for ∞ (removal of genomic DNA), 37 °C for 15 min, 85 °C for 5 s, and 4 °C for ∞ (reverse transcriptional reaction). RT-qPCR was performed according to the TB Green Premix Ex Taq II protocol. Primer sequences and product lengths were as follows: hTRPA1 (107 bp) forward primer 5′-[…]-3′, reverse primer 5′-[…]-3′; hβ-actin (184 bp) forward primer 5′-[…]-3′, reverse primer 5′-[…]-3′. RT-qPCR was performed using the CFX96 Real-Time System (Bio-Rad Laboratories, Hercules, CA, USA) using the following reaction conditions: 95 °C for 30 s, 40 cycles of 95 °C for 5 s, 60 °C for 30 s, and 72 °C for 30 s, followed by a melting curve from 65 to 95 °C in 0.5 °C/5 s increments. Calculations were performed using the CFX Manager^TM Version 1.0 software (Bio-Rad Laboratories Ltd., Hercules, CA, USA) and are represented as fold change in expression [2^ΔΔC(t)] on a linear scale.

[4] = tested on: calcium influx in A549 cells; assay: Cellular calcium imaging (Fluo-4) in WT A549 cells; type: cell-based, human; settings: for calcium influx compared with 0 μM AHs: A549 cells, 150, 300, 600, 1200 μM; for calcium influx with HC-030031 pre-treatment compared with AHs treatment alone: A549 cells, HC-030031 50 μM, AHs 150-1200 μM
Procedure: as §1
(§5) Working solution was prepared according to the instructions of the Fluo-4 Direct calcium assay kit and directly added to WT/TRPA1-KO A549 cells in 96-well plates, which were incubated for 0.5 h and kept away from light after removal from the incubator. Single channel fluorescein isothiocyanate (FITC) levels were measured using a confocal high-content imaging system (IXM-C S150069, Molecular Devices, San Jose, CA, USA).

[5] = tested on: calcium influx in TRPA1-KO A549 cells; assay: Cellular calcium imaging (Fluo-4) in TRPA1-KO A549 cells; type: cell-based, human; settings: AHs 150-1200 μM
Procedure: as §3, §4, §5

[6] = Homo sapiens, WT A549 cells, 24 h treatment, read-out: IC50 values of AHs, A549 Cells
[7] = WT A549 cells pre-treated with HC-030031 50 μM, then AHs 24 h, read-out: IC50 values of AHs, A549 Cells + HC-030031 50 μM

hTRPA1 ARD recombinant protein, sequence (O75762 62-609): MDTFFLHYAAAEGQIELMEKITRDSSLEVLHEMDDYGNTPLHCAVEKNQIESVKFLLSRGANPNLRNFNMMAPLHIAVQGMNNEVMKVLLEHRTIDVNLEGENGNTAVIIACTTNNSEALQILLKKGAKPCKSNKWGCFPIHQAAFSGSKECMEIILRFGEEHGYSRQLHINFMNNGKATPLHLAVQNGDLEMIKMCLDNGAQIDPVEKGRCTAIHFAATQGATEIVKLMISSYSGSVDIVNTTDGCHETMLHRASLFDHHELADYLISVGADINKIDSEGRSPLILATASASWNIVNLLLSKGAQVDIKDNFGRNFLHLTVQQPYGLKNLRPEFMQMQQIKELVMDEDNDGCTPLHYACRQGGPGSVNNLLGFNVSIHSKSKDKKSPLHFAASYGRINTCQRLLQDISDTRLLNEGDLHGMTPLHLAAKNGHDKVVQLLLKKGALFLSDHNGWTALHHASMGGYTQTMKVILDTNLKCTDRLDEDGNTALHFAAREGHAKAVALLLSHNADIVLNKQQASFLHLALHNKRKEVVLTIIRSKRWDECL

Compound	viability of A549 cells compared with 0 μM AHs (A549 cells [1])	viability with HC-030031 pre-treatment compared with AHs treatment alone (A549 cells [1])	IC50 (A549 cells [1]; [6]) [µM]	IC50 (A549 cells [1]; [7]) [µM]	IC50 (TRPA1-KO A549 cells) [µM]	viability of TRPA1-KO A549 cells compared with AHs-treated WT cells (TRPA1-KO A549 cells)	binding between hTRPA1 and AHs (LSPR) [2]	cell damage (LDH) compared with 0 μM AHs (A549 cells [3])	TRPA1 mRNA expression with HC-030031 pre-treatment compared with AHs treatment alone (TRPA1 mRNA in A549 cells)	expression of TRPA1 mRNA compared with 0 μM AHs (TRPA1 mRNA in A549 cells)	calcium influx compared with 0 μM AHs [4]	calcium influx with HC-030031 pre-treatment compared with AHs treatment alone [4]	calcium influx with KO of TRPA1 compared with AHs-treated WT cells [5]	cell damage (LDH) compared with 0 μM AHs (A549 cells [3]; 150, 300, 600, 1200 μM, 24 h)
CCCCOCN(C(=O)CCl)c1c(CC)cccc1CC [Butachlor, butachlor]	significantly decreased	significantly increased viability	619	1760	767	significantly increased the viability	Obvious binding was not detected	significantly increased cell damage	significantly reduced	significantly increased	significantly increased	significantly decreased calcium influx	significantly decreased calcium influx	
CCc1cccc(C)c1N(COC(C)C)C(=O)CCl [Propisochlor, propisochlor]	significantly decreased	albeit not significantly	564	1690	1830	significantly increased the viability	Obvious binding was not detected		albeit not significantly	significantly increased	significantly increased	significantly decreased calcium influx	significantly decreased calcium influx	significantly increased cell damage
CCOCN(C(=O)CCl)c1c(C)cccc1CC [Acetochlor, acetochlor]	significantly decreased	significantly increased viability	524	647	696	significantly increased the viability	Obvious binding was not detected		significantly reduced	significantly increased	significantly increased	significantly decreased calcium influx	significantly decreased calcium influx	
CCc1cccc(CC)c1N(COC)C(=O)CCl [Alachlor, alachlor]	significantly decreased	significantly increased viability	565	731	659	significantly increased the viability	Obvious binding was not detected		significantly reduced	significantly increased	significantly increased	significantly decreased calcium influx	significantly decreased calcium influx	significantly increased cell damage
